This note sets out measurements from the supplement of paper PMC4862054.

SMILES strings stand for the structures.

What all share (conditions): incubation time: 72 h
Assay [1] has as its system DU-4475. The assay is described as follows: normalised response (% of control), CellTox Green; higher = less cell death (100 = DMSO, 0 = benzethonium chloride kill control). In a few lines: (§1)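 Compound was dispensed into 384-well plates at 5 concentrations in 10-fold steps spanning a 10,000-fold range specific to that compound. Breast cancer cell lines were added as 20 µl suspension and left for 72 h before CellTox Green fluorescence (485/520 nm) and then CellTiter-Glo luminescence, read after 10 min at room temperature. Each reported value is the normalised signal at one concentration, with 0.1 % DMSO set at 100 and a positive kill control at 0 on each plate.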

Assay [2] relates to BT-549. The description is as above. In a few lines: as §1
Assay [3] deals with HDQ-P1. Described as above. An outline of the steps: as §1
Assay [4] relates to HCC1143. The description is as above. In a few lines: as §1
Assay [5] deals with CAL-148. The assay is described as above. In a few lines: as §1
The subject of assay [6] is MDA-MB-436. The assay is described as above. In a few lines: as §1
Assay [7] concerns MCF-10A. The assay is described as above. In a few lines: as §1
In assay [8] the test system is HCC1937. The assay is described as above. An outline of the steps:
as §1

For assay [9], the system named is MDA-MB-453. The assay is described as above. In a few lines:
as §1

Assay [10] concerns HCC1599. Described as above. An outline of the steps: as §1
The subject of assay [11] is CAL-85-1. Described as above. In a few lines:
as §1

Assay [12] has as its system CAL-120. Described as above. An outline of the steps:
as §1

The subject of assay [13] is MDA-MB-468. Described as above. In a few lines: as §1
Assay [14] concerns CAL-51. The assay is described as above. In a few lines: as §1
Assay [15] has as its system MFM-223. The assay is described as above. In a few lines: as §1
For assay [16], the system named is BT-474. The assay is described as above. An outline of the steps: as §1
For assay [17], the system named is MDA-MB-231. The description is as above. In a few lines: as §1
Assay [18] concerns DU-4475. The assay is described as follows: normalised response (% of control), CellTiter-Glo; higher = more viable cells (100 = DMSO, 0 = benzethonium chloride kill control). In a few lines:
as §1
(In ATP-based viability assays light output follows the ATP content of the culture.)

The test system of assay [19] is BT-549. The assay is described as above. In a few lines:
as §1

In assay [20] the test system is HDQ-P1. The assay is described as above. An outline of the steps:
as §1

Assay [21] concerns HCC1143. The assay is described as above. An outline of the steps:
as §1

Assay [22] concerns CAL-148. The description is as above. An outline of the steps:
as §1

In assay [23] the test system is MDA-MB-436. Described as above. An outline of the steps:
as §1

Assay [24] relates to MCF-10A. The description is as above. In a few lines: as §1
The test system of a further assay is SK-BR-3. Described as above. In a few lines:
as §1

Assay [25] has as its system HCC1937. Described as above. An outline of the steps: as §1
In assay [26] the test system is MDA-MB-453. Described as above. An outline of the steps:
as §1

Assay [27] has as its system HCC1599. The description is as above. An outline of the steps: as §1
Assay [28] concerns CAL-85-1. The description is as above. In a few lines:
as §1

For assay [29], the system named is CAL-120. The assay is described as above. In a few lines: as §1
The subject of assay [30] is MDA-MB-468. Described as above. In a few lines:
as §1

Another assay concerns Hs578T. Described as above. An outline of the steps:
as §1

Assay [31] concerns CAL-51. The assay is described as above. An outline of the steps:
as §1

The subject of assay [32] is MFM-223. Described as above. In a few lines:
as §1

Assay [33] concerns BT-474. The description is as above. In a few lines:
as §1

For assay [34], the system named is MDA-MB-231. Described as above. An outline of the steps:
as §1

`C[C@]12CC[C@@H]3c4ccc(OC(=O)N(CCCl)CCCl)cc4CC[C@H]3[C@@H]1CC[C@@H]2O` [Estramustine] (1000 nM): the normalised response in the assay on DU-4475 [1] turned out to be 96.5%; with BT-549 [2] it was 98.6%; with HDQ-P1 [3], 70.6%; with HCC1143 [4], 103%; in the assay with CAL-148 [5] it was 46.8%; in the assay with MDA-MB-436 [6], 93.3%. Moreover, the normalised response in the assay with MCF-10A [7] is 55.8%; in the assay with HCC1937 [8], 67%; with MDA-MB-453 [9], 97.3%; with HCC1599 [10], 90.2%; with CAL-85-1 [11], 107%; with CAL-120 [12] it was 93.9%. For the same compound, the normalised response with MDA-MB-468 [13] came out at 182%; in the assay with CAL-51 [14], 84.7%; with MFM-223 [15], 93.1%; in the assay with BT-474 [16], 89%; in the assay with MDA-MB-231 [17], 94%; in the assay on DU-4475 [18] it was 88.5%. In addition, the normalised response in the assay on BT-549 [19] came out at 104%; with HDQ-P1 [20], 103%; with HCC1143 [21], 93.5%; with CAL-148 [22], 78.6%; in the assay on MDA-MB-436 [23], 98.5%; with MCF-10A [24], 92%. For the same compound, the normalised response in the assay with SK-BR-3 worked out at 87.4%; with HCC1937 [25], 95.5%; in the assay on MDA-MB-453 [26] it was 93.5%; in the assay on HCC1599 [27], 111%; in the assay on CAL-85-1 [28], 93.3%; in the assay with CAL-120 [29] it was 99.9%. The normalised response in the assay with MDA-MB-468 [30] stood at 87.1%; in the assay on Hs578T, 95.9%; in the assay with CAL-51 [31], 80.7%; in the assay with MFM-223 [32], 86.2%; with BT-474 [33] it was 96.1%; in the assay with MDA-MB-231 [34], 94.4%.
In the case of `O=C1CN2Cc3c(ccc(Cl)c3Cl)N=C2N1` [Anagrelide] (10 nM), the normalised response worked out at 101% with DU-4475 [18]; 101% in the assay on BT-549 [19]; 98.7% in the assay with HDQ-P1 [20]; 103% in the assay with HCC1143 [21]; 93.9% in the assay on CAL-148 [22]; 95.2% in the assay on MDA-MB-436 [23]. Besides, the normalised response with MCF-10A [24] was 103%; in the assay on SK-BR-3 it was 94.2%; in the assay with HCC1937 [25], 94.8%; in the assay with MDA-MB-453 [26], 102%; in the assay with HCC1599 [27] it was 100%; in the assay with CAL-85-1 [28] it was 93.8%. In addition, the normalised response turned out to be 96.5% with CAL-120 [29]; 100% with MDA-MB-468 [30]; 97.5% in the assay with Hs578T; 115% with CAL-51 [31]; 99.2% with MFM-223 [32]; 95.5% in the assay on BT-474 [33]. Also, in the assay on MDA-MB-231 [34], the normalised response amounted to 97%.
Turning to `CC1(C)CCC(CN2CCN(c3ccc(C(=O)NS(=O)(=O)c4ccc(NCC5CCOCC5)c([N+](=O)[O-])c4)c(Oc4cnc5[nH]ccc5c4)c3)CC2)=C(c2ccc(Cl)cc2)C1` [ABT-199] (1 nM), the normalised response in the assay with DU-4475 [18] came to 98.2%; in the assay with BT-549 [19], 98.9%; with HDQ-P1 [20] it was 101%; in the assay on HCC1143 [21], 98.6%; in the assay with CAL-148 [22] it was 100%; in the assay on MDA-MB-436 [23] it was 98.5%. Further, the normalised response came out at 98.3% with MCF-10A [24]; 95.4% in the assay on SK-BR-3; 106% with HCC1937 [25]; 101% with MDA-MB-453 [26]; 89.5% in the assay with HCC1599 [27]; 99.5% with CAL-85-1 [28]. In addition, the normalised response with CAL-120 [29] worked out at 98.9%; in the assay with MDA-MB-468 [30], 94.1%; in the assay on Hs578T, 104%; with CAL-51 [31] it was 122%; in the assay on MFM-223 [32], 96.8%; in the assay with BT-474 [33] it was 94.8%. Further, in the assay with MDA-MB-231 [34], the normalised response was determined as 97.4%.
With `Cn1cc(C2=Nc3cc(NC(=O)C(N)C4CCCCC4)cc4c3C2=CNNC4=O)cn1` (stereo unspecified) (10 nM), the normalised response with DU-4475 [18] was 95.3%; with BT-549 [19], 95.2%; in the assay with HDQ-P1 [20], 91.7%; with HCC1143 [21], 90.4%; in the assay on CAL-148 [22], 87.3%; with MDA-MB-436 [23] it was 89.4%. The normalised response with MCF-10A [24] was determined as 84.6%; with SK-BR-3, 77.2%; in the assay on HCC1937 [25], 96.2%; in the assay on MDA-MB-453 [26] it was 91.7%; in the assay on HCC1599 [27] it was 93.4%; in the assay with CAL-85-1 [28], 93.3%. Also, the normalised response with CAL-120 [29] worked out at 90.9%; in the assay on MDA-MB-468 [30], 90.6%; with Hs578T it was 94.3%; in the assay on CAL-51 [31], 134%; with MFM-223 [32] it was 90.4%; in the assay with BT-474 [33], 94%. The same compound came in with a normalised response in the assay on MDA-MB-231 [34] of 91.2%.
Regarding `CC[C@@H]1C(=O)OC[C@@H]1Cc1cncn1C` [Pilocarpine] (40 nM), the normalised response in the assay on DU-4475 [18] turned out to be 102%; in the assay on BT-549 [19] it was 96.1%; in the assay on HDQ-P1 [20], 98.3%; in the assay on HCC1143 [21], 103%; in the assay with CAL-148 [22], 96.8%; in the assay with MDA-MB-436 [23] it was 94%. Moreover, the normalised response is 98.1% with MCF-10A [24]; 89.9% in the assay on SK-BR-3; 97.6% with HCC1937 [25]; 106% with MDA-MB-453 [26]; 81% in the assay with HCC1599 [27]; 103% in the assay on CAL-85-1 [28]. The normalised response in the assay on CAL-120 [29] was determined as 94.2%; with MDA-MB-468 [30], 94.7%; in the assay on Hs578T it was 98.1%; in the assay with CAL-51 [31], 127%; with MFM-223 [32], 96.1%; in the assay with BT-474 [33], 94.3%. Also, the normalised response with MDA-MB-231 [34] amounted to 97.4%.
`C[C@]1(O)C[C@@H](c2nc(-c3ccc4ccc(-c5ccccc5)nc4c3)c3c(N)nccn32)C1` [Linsitinib] (1 nM): the normalised response came out at 98% with DU-4475 [18]; 92.6% in the assay with BT-549 [19]; 105% in the assay on HDQ-P1 [20]; 91.7% with HCC1143 [21]; 98% with CAL-148 [22]; 96.4% in the assay on MDA-MB-436 [23]. For the same compound, the normalised response in the assay with MCF-10A [24] was 89.5%; in the assay with SK-BR-3 it was 91.5%; with HCC1937 [25], 91.5%; in the assay on MDA-MB-453 [26], 90.9%; with HCC1599 [27], 106%; in the assay on CAL-85-1 [28], 92.8%. Further, the normalised response is 97.7% in the assay with CAL-120 [29]; 93.9% with MDA-MB-468 [30]; 93.2% with Hs578T; 109% in the assay with CAL-51 [31]; 87.5% in the assay on MFM-223 [32]; 98.2% with BT-474 [33]. The compound further came in with a normalised response in the assay on MDA-MB-231 [34] of 95.3%.
